Experimental findings from ChEMBL document CHEMBL4041469, “The replacement of the 2-methoxy substituent of N-((6,6-diphenyl-1,4-dioxan-2-yl)methyl)-2-(2-methoxyphenoxy)ethan-1-amine improves the selectivity for 5-HT1A receptor over α1-adrenoceptor and D2-like receptor subtypes” (Eur J Med Chem, 2017) are described below.

Test [1] has as its target T1, Alpha-1D adrenergic receptor (Homo sapiens, UniProt P25100).
T1 sequence (P25100 whole entry): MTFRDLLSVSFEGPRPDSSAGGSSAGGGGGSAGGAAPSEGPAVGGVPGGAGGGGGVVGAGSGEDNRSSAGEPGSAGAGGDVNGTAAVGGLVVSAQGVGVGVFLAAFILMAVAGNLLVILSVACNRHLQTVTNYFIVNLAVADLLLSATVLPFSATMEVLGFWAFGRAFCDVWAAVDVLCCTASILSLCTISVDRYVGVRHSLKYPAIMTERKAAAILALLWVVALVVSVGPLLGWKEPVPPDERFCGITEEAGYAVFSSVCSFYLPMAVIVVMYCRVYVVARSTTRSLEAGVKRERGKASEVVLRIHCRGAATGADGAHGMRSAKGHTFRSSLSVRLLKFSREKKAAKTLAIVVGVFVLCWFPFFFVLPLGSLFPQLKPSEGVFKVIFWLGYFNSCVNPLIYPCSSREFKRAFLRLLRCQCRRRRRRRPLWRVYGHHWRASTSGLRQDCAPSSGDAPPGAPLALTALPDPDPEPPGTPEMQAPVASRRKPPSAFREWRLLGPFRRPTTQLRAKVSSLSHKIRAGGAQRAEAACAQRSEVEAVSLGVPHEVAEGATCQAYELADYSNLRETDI
The experiment in a line: Displacement of [3H]prazosin from recombinant human alpha-1d adrenergic receptor expressed in CHO cell membranes after 30 mins by liquid scintillation counting method.

Test [2] deals with Mus musculus. The test is described as follows: Anxiolytic activity in CD-1 mouse assessed as increase in time spent in light area at 2.5 mg/kg, ip administered 30 mins prior to test by light/dark exploration test. Type of test: functional, organism-based.
Test [3] deals with Mus musculus. The test is described as follows: Anxiolytic activity in CD-1 mouse assessed as increase in latency time to enter dark area at 2.5 mg/kg, ip administered 30 mins prior to test by light/dark exploration test. It is filed as functional, organism-based.
For test [4], the target named is T2, 5-hydroxytryptamine receptor 1A (Homo sapiens) (UniProt P08908).
T2 sequence (whole entry): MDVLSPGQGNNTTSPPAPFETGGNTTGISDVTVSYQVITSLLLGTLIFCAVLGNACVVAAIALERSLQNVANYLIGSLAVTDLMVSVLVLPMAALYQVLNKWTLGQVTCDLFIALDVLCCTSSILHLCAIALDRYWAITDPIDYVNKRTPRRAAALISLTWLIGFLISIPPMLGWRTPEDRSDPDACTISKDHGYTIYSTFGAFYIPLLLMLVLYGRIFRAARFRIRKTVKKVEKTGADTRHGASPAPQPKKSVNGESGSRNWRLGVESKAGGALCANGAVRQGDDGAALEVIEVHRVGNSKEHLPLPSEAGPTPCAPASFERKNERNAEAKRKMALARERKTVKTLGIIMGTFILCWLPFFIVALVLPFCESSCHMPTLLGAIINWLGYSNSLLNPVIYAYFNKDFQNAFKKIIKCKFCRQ
The experiment in a line: Agonist activity at recombinant human 5HT1A receptor expressed in human HeLa cell membranes assessed as stimulation of [35S]GTPgammaS binding preincubated for 20 mins followed by [35S]GTPgammaS addition measured after 30 mins by liquid scintillation counting method. It is filed as functional. A general note: GTPγS resists hydrolysis and so accumulates on activated G proteins.

The nature of test [5]: Selectivity index, ratio of Ki for recombinant human alpha-1a adrenergic receptor expressed in CHO cell membranes to Ki for recombinant human 5HT1A receptor expressed in human HeLa cell membranes.
Test [6] in a line: Selectivity index, ratio of Ki for recombinant human alpha-1b adrenergic receptor expressed in CHO cell membranes to Ki for recombinant human 5HT1A receptor expressed in human HeLa cell membranes.
Test [7] is described as follows: Selectivity index, ratio of Ki for recombinant human alpha-1d adrenergic receptor expressed in CHO cell membranes to Ki for recombinant human 5HT1A receptor expressed in human HeLa cell membranes.
The next test has as its target D(2) dopamine receptor (Homo sapiens, UniProt P14416). The test is described as follows: Displacement of [3H]N-methylspiperone from recombinant human D2 receptor expressed in HEK293 cell membranes after 1 hr by liquid scintillation counting method.
In another test the target is D(3) dopamine receptor (Homo sapiens, UniProt P35462). The test is described as follows: Displacement of [3H]N-methylspiperone from recombinant human D3 receptor expressed in HEK293 cell membranes after 1 hr by liquid scintillation counting method.
The target in the next test is T3, D(4) dopamine receptor (Homo sapiens, UniProt P21917).
T3 sequence (P21917 whole entry): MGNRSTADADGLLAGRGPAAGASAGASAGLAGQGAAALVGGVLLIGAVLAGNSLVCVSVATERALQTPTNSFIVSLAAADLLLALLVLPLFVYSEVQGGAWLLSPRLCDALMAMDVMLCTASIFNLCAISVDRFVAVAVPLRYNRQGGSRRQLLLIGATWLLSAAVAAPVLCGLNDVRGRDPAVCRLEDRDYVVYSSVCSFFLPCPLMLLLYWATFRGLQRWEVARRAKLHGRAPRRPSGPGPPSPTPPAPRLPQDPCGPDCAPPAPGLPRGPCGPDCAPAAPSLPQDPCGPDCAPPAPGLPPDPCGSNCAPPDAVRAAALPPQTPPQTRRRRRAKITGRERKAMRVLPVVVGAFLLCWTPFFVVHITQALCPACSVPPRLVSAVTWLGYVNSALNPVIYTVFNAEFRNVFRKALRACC
The experiment in a line: Displacement of [3H]N-methylspiperone from recombinant human D4 receptor expressed in HEK293 cell membranes after 1 hr by liquid scintillation counting method.

Test [8] in a line: Selectivity index, ratio of Ki for recombinant human D2 receptor expressed in HEK293 cell membranes to Ki for recombinant human 5HT1A receptor expressed in human HeLa cell membranes.
Test [9] is described as follows: Selectivity index, ratio of Ki for recombinant human D3 receptor expressed in HEK293 cell membranes to Ki for recombinant human 5HT1A receptor expressed in human HeLa cell membranes.
Test [10] is described as follows: Selectivity index, ratio of Ki for recombinant human D4 receptor expressed in HEK293 cell membranes to Ki for recombinant human 5HT1A receptor expressed in human HeLa cell membranes.
Test [11] addresses T4, Alpha-1B adrenergic receptor (Homo sapiens, UniProt P35368).
T4 sequence (P35368 whole entry): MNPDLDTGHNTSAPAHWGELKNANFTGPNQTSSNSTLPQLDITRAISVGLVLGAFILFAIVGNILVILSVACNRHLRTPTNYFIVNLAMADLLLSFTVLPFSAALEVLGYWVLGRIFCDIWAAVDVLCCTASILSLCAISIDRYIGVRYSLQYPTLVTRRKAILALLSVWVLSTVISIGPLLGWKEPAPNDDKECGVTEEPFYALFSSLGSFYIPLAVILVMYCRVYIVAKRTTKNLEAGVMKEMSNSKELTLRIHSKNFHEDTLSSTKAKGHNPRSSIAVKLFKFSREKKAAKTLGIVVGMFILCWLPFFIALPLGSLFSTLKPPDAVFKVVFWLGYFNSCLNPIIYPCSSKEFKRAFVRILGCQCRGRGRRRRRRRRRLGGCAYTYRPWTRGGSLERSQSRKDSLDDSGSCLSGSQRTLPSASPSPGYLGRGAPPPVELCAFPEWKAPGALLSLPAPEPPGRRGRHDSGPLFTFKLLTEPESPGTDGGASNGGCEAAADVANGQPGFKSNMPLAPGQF
The test is described as follows: Displacement of [3H]prazosin from recombinant human alpha-1b adrenergic receptor expressed in CHO cell membranes after 30 mins by liquid scintillation counting method. (In a radioligand displacement assay an active substance lowers the binding of a labelled ligand.)

The target in test [12] is T5, Alpha-1A adrenergic receptor (Homo sapiens, UniProt P35348).
T5 sequence (P35348 whole entry): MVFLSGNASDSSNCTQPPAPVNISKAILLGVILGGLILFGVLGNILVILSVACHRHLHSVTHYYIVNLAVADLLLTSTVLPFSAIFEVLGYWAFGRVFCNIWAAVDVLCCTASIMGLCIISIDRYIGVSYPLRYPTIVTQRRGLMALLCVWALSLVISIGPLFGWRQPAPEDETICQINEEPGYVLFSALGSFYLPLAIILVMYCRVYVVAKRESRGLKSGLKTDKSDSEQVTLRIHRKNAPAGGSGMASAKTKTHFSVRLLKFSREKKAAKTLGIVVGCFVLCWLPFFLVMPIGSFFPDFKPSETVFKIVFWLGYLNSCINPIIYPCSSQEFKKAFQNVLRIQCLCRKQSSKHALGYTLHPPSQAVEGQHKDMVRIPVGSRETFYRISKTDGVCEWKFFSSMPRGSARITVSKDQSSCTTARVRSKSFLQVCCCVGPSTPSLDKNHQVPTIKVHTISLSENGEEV
The experiment in a line: Displacement of [3H]prazosin from recombinant human alpha-1a adrenergic receptor expressed in CHO cell membranes after 30 mins by liquid scintillation counting method.

Test [13] has as its target T6, 5-hydroxytryptamine receptor 1A (Homo sapiens, UniProt P08908).
T6 sequence (P08908 whole entry): T2 sequence (whole entry)
The test is described as follows: Displacement of [3H]8-OH-DPAT from recombinant human 5HT1A receptor expressed in human HeLa cell membranes after 30 mins by liquid scintillation counting method.

Test [14] deals with T2, 5-hydroxytryptamine receptor 1A (Homo sapiens). The experiment in a line: Agonist activity at recombinant human 5HT1A receptor expressed in human HeLa cell membranes assessed as stimulation of [35S]GTPgammaS binding up to 10 uM preincubated for 20 mins followed by [35S]GTPgammaS addition measured after 30 mins by liquid scintillation counting method relative to 5-HT. It is filed as functional.

Calls of active or inactive are those of the source. No cut-off for these calls is given here.

D(3) dopamine receptor, sequence (P35462 whole entry): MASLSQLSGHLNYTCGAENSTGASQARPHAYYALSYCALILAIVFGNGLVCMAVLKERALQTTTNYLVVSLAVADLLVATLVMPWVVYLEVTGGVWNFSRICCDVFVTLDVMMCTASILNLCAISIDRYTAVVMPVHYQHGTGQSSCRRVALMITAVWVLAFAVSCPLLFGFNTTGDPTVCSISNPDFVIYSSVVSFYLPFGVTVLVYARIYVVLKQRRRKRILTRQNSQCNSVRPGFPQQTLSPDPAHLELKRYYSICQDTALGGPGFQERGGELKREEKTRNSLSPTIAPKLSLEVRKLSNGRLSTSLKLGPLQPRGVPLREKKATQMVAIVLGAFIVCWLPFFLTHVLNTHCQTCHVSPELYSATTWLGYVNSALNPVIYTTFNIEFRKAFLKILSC
D(2) dopamine receptor, sequence (P14416 whole entry): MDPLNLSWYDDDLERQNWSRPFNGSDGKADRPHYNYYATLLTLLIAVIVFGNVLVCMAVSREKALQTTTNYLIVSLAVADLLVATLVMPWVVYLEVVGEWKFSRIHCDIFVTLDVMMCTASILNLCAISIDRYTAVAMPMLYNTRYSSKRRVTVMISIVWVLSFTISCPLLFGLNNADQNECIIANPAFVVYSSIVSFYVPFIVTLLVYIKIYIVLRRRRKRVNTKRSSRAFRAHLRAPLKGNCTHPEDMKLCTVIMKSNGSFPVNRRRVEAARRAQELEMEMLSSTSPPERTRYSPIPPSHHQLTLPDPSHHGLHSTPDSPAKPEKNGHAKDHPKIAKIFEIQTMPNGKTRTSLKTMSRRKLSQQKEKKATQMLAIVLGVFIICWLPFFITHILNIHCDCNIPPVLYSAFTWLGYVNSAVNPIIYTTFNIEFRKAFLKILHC

As a reminder, the Ki is the equilibrium dissociation constant of an inhibitor or competing ligand from its target. For the molecule `O=C1CC2(CCCC2)CC(=O)N1CCN1CCN(c2ccccc2O)CC1`, in test [1], the Ki was 0.0162 µM.
As to `CN1C(=O)CN=C(c2ccccc2)c2cc(Cl)ccc21`, the outcome in the test on Mus musculus [2] and in the test with Mus musculus [3] was Active.
Take `COc1cccc(OC)c1OCCNC[C@@H]1COCC(c2ccccc2)(c2ccccc2)O1`: the pD2 in test [4] was found to be 5.88.
On to `COc1cccc(OC)c1OCCNC[C@H]1COCC(c2ccccc2)(c2ccccc2)O1`, for which the pD2 in test [4] is 8.3.
`COc1ccccc1N1CCN(CCN2C(=O)CC3(CCCC3)CC2=O)CC1`: in [4], the pD2 worked out at 9.27.
On the same count and under the same terms, in the case of `COc1ccccc1OCCNC[C@@H]1COCC(c2ccccc2)(c2ccccc2)O1` it was 7.7; in that of `COc1ccccc1OCCNC[C@H]1COCC(c2ccccc2)(c2ccccc2)O1`, 9.19.
As for `COc1ccccc1OCCNCC1COCC(c2ccccc2)(c2ccccc2)O1` (racemic), in test [4], the pD2 is 9.4. Moreover, the “Ratio Ki” value in [5] is reported as 42; in [6], 85; in test [7], 2; in [8], 19; in [9], 20; in test [10], 13. The Ki was 0.0123 µM on D(2) dopamine receptor, 0.0132 µM at D(3) dopamine receptor and 0.00832 µM at D(4) dopamine receptor.
By Emax is commonly meant the greatest response seen or fitted, relative to the assay's reference. For the molecule `O=[N+]([O-])c1ccccc1OCCNCC1COCC(c2ccccc2)(c2ccccc2)O1` (racemic), the Ki in test [11] was 0.251 µM; in test [12] it was 0.117 µM; in test [1], 0.00661 µM; in test [13] it was 0.000562 µM. For the same molecule, the pD2 in [4] was found to be 8.93. Moreover, the Emax in [14] was in the range of 82.5 to 82.6%.
On to `Cc1ccccc1OCCNCC1COCC(c2ccccc2)(c2ccccc2)O1` (racemic), for which the Ki in [11] is 0.178 µM; in test [12], 0.17 µM; in [1] it was 0.00501 µM; in test [13] it was 0.00112 µM. For the same molecule, the pD2 in test [4] is 8.73. The Emax in test [14] was found to be 59.7%.
Regarding `Clc1ccccc1OCCNCC1COCC(c2ccccc2)(c2ccccc2)O1` (racemic), the Ki is 0.12 µM in test [11], 0.115 µM in [12], 0.00589 µM in [1] and 0.000794 µM in test [13]. The pD2 in test [4] came out at 8.7. In addition, the maximal response (Emax) in [14] worked out at 66%.
On to `COc1ccccc1OCCNCC1COC(c2ccccc2)(c2ccccc2)CO1` (racemic), for which, in test [13], the Ki is 0.00759 µM.
Still for that read-out and setting: in the case of `c1ccc(OCCNCC2COC(c3ccccc3)(c3ccccc3)CO2)cc1` (racemic) it was 0.0372 µM.
Regarding `Oc1ccccc1OCCNCC1COCC(c2ccccc2)(c2ccccc2)O1` (racemic), the Ki in test [11] is 0.372 µM; in [12] it was 0.195 µM; in test [1] it was 0.0776 µM; in test [13] it was 0.000692 µM; at D(2) dopamine receptor, 0.0155 µM; at D(3) dopamine receptor, 0.0339 µM. At D(4) dopamine receptor, the inhibition constant (Ki) was 0.0363 µM. Further, the pD2 in [4] was found to be 7.8. For the same molecule, the Emax in [14] came out at 65.6%. The “Ratio Ki” value in test [7] was determined as 112; in test [8] it was 22; in [9] it was 49; in [10] it was 53.
For `COc1cccc(OC)c1OCCNCC1COC(c2ccccc2)(c2ccccc2)CO1` (racemic), the Ki in test [13] is 0.229 µM.
For the molecule `c1ccc(C2(c3ccccc3)COCC(CNCCOc3ccccn3)O2)cc1` (racemic), the Ki in [11] was 0.115 µM; in [12] it was 0.155 µM; in [1], 0.0055 µM; in test [13] it was 0.000891 µM. In addition, in test [4], the pD2 was determined as 8.02. Besides, in test [14], the Emax is 63.9%.
Turning to `COc1cccc(OC)c1OCCNCC1COCC(c2ccccc2)(c2ccccc2)O1` (racemic), the pD2 in test [4] came out at 8.28.
Take `COc1ccccc1OCCNC[C@@H]1COC[C@H](c2ccccc2)O1` (racemic): the Emax in test [14] amounted to 78.1%.
Regarding `COc1ccccc1OCCNC[C@@H]1CO[C@H](c2ccccc2)CO1` (racemic), the pD2 in [4] came out at 7.88. Further, in [14], the Emax was 85.5%.
